# Test results published in patent US8247170B2, “Detection of penicillin tolerance in Group B Streptococcus: single nucleotide polymorphisms in penicillin binding protein 4” (priority 2008, dated 2012).
# Tested on: GBS clinical isolates and laboratory strains
# Assay: Macrobroth penicillin tolerance assay
# Assay type: cell-based, Group B Streptococcus
# Settings: for 10xMIC, regrowth O.D.600: Penicillin G 10×MIC90 48 h; for 10xMIC, regrowth O.D.600 / 30xMIC, regrowth O.D.600 / 100xMIC, regrowth O.D.600 / 300xMIC, regrowth O.D.600: then 24 h drug-free; for 30xMIC, regrowth O.D.600: Penicillin G 30×MIC90 48 h; for 100xMIC, regrowth O.D.600: Penicillin G 100×MIC90 48 h; for 300xMIC, regrowth O.D.600: Penicillin G 300×MIC90 48 h
# Protocol: Using this modified penicillin tolerance assay, tolerant strains from the GBS clinical isolates can be more efficiently identified. In this macrobroth culture format, 25 ml THB broth GBS cultures (containing clinical isolates) were grown to an early exponential growth phase (˜0.2 OD600). Cell cultures (6 ml) were collected and divided into 4 culture tubes. […] Cell cultures were shaken at 150 rpm in order to maintain cells in suspension for proper growth. Subcultures (1/20 dilution) of cells were put into fresh THB containing […] Penase (i.e., 100 μl of Penase 10,000 U stock into 4 ml THB culture). Subcultures were allowed to grow for 24 hours at 37° C. Cell growth was monitored by OD (see Example 2).
# (I) Bacterial Strains and Culture Conditions. GBS strains A909 (serotype IA), 515 (serotype IA), NEM316 (serotype III), COHI (serotype III), 2603V/R (serotype V) and O90R (non-typable) were used in this study. E. coli Top10 cells were used for the recombination experiments. GBS was cultured in Todd Hewitt broth (THB) or Tryptic Soy 5% sheep blood (TS) media and E. coli in Luria-broth (LB) medium or agar. Antibiotics were used at the following concentrations: for GBS—penicillin G (MIC90 0.06 μg ml^−1), ampicillin (MIC90 0.12 μg ml^−1), vancomycin (MIC90 2 μg ml^−1), cefazolin (MIC90 1 μg ml^−1) and chloramphenicol (5 μg ml^−1); for E. coli—ampicillin (50 μg ml^−1) and chloramphenicol (5 μg ml^−1). Both GBS and E. coli cultures were grown at 37° C. (II) Tolerance Using the MBC:MIC Ratio Method. Three GBS laboratory strains (i.e., A909, NEM316, and O90R) were cultured overnight for 18 h at 37° C. in THB. Subcultures in THB were subsequently grown to exponential phase (OD600˜0.3; i.e. 5×10^5 cfu/ml) at 37° C. Cell cultures were then exposed to different concentrations of antibiotics (Penicillin G, Ampicillin, Cefozolin or Vancomycin). […] Cell cultures were dispersed every 18 h before OD600 was measured to determine the lowest concentration of antibiotic with 90% growth inhibition (MIC90). Antibiotic treated cells (8 μl) from each well were re-suspended into PBS (100 μl) and plated (54 μl) on TS agar plates and allowed to grow for an additional 24 h at 37° C. Cell count was performed to determine the lowest concentration of antibiotic with 90% killing of original inoculums (MBC90). (III) Penicillin Killing and Regrowth Tolerance Assay by Microbroth Dilution. Three GBS laboratory strains (i.e., A909, NEM316, and O90R) were cultured overnight for 18 h at 37° C. in THB. Subcultures in THB were subsequently grown to exponential phase (OD600˜0.3) at 37° C. Cell cultures were then exposed to different concentrations of Penicillin G (Sigma, St. Louis, Mo.). […] Cell cultures were dispersed. A 1:20 dilution of cells was re-plated into new wells containing fresh THB with 500 U Penase (to degrade residual penicillin). Cell cultures were allowed to re-grow for an additional 24 h at 37° C. before the OD600 was measured. (IV) Measuring Cell Viability by Determining ATP Concentration. GBS strains were cultured for 18 h at 37° C. in THB. These cells were inoculated into fresh THB and subsequently allowed to grow to exponential phase (OD600 0.25-0.3) at 37° C. One ml of each culture was centrifuged at 5,000×g for 4 min. The cell pellet was re-suspended in ATP-free water. Cellular ATP was extracted using trichloroacetic acid (TCA) (5%) for 2 min and subsequently neutralized with Tris-EDTA-0.1M NaOAc, pH 7.75 to 10×TCA volume. The initial (in.) cellular ATP concentration ([ATP]) was measured using the ENLITEN (Promega) luciferase based reaction kit. THB cultures were then treated with 100×MIC90 Penicillin G for 22 h. The experimental (exp.) cellular ATP was extracted and the concentration was measured as stated above. Based on the calculations ([ATP] exp.)/([ATP] in./O.D. in.), differences in viability were equated with the change in [ATP]. (V) Measuring Penicillin Induced Lysis. Three GBS laboratory strains (A909, NEM316, and O90R) were cultured for 18 h at 37° C. in THB. […]
# [1] = GBS laboratory strain 2603V/R (V)
# [2] = GBS laboratory strain A909 (Ia)
# [3] = GBS laboratory strain COH1 (III)
# [4] = GBS laboratory strain NEM316 (III)
# [5] = GBS laboratory strain O90R (NT)
structure (smiles),measurement,setting,value
CC1(C)S[C@@H]2[C@H](NC(=O)Cc3ccccc3)C(=O)N2[C@H]1C(=O)O [Penicillin G],% of clinical isolates PE-PT,51 clinical isolates,23.5%
same,% of clinical isolates PT (penicillin tolerant),51 clinical isolates,15.7%
same,% of clinical isolates S (penicillin susceptible),51 clinical isolates,60.8%
same,Phenotype,GBS laboratory strain 515 (Ia),Penicillin Tolerance (PT)
same,"10xMIC, regrowth O.D.600",GBS laboratory strain 515 (Ia),++ (“++” indicates an O.D.600 of 0.251 to 0.750)
same,"30xMIC, regrowth O.D.600",GBS laboratory strain 515 (Ia),+++ (“+++” indicates an O.D.600 of 0.751 to 1.500)
same,"100xMIC, regrowth O.D.600",GBS laboratory strain 515 (Ia),++ (“++” indicates an O.D.600 of 0.251 to 0.750)
same,"300xMIC, regrowth O.D.600",GBS laboratory strain 515 (Ia),++ (“++” indicates an O.D.600 of 0.251 to 0.750)
same,Phenotype,[1],Susceptible (S)
same,"10xMIC, regrowth O.D.600",[1],−− (“−−” indicates an O.D.600 of 0.001 to 0.099)
same,"30xMIC, regrowth O.D.600",[1],−− (“−−” indicates an O.D.600 of 0.001 to 0.099)
same,"100xMIC, regrowth O.D.600",[1],−− (“−−” indicates an O.D.600 of 0.001 to 0.099)
same,"300xMIC, regrowth O.D.600",[1],−− (“−−” indicates an O.D.600 of 0.001 to 0.099)
same,Phenotype,[2],Susceptible (S)
same,"10xMIC, regrowth O.D.600",[2],−− (“−−” indicates an O.D.600 of 0.001 to 0.099)
same,"30xMIC, regrowth O.D.600",[2],−− (“−−” indicates an O.D.600 of 0.001 to 0.099)
same,"100xMIC, regrowth O.D.600",[2],−− (“−−” indicates an O.D.600 of 0.001 to 0.099)
same,"300xMIC, regrowth O.D.600",[2],−− (“−−” indicates an O.D.600 of 0.001 to 0.099)
same,Phenotype,[3],Paradoxical Effect-Penicillin Tolerance
same,"10xMIC, regrowth O.D.600",[3],−− (“−−” indicates an O.D.600 of 0.001 to 0.099)
same,"30xMIC, regrowth O.D.600",[3],+++ (“+++” indicates an O.D.600 of 0.751 to 1.500)
same,"100xMIC, regrowth O.D.600",[3],+++ (“+++” indicates an O.D.600 of 0.751 to 1.500)
same,"300xMIC, regrowth O.D.600",[3],++ (“++” indicates an O.D.600 of 0.251 to 0.750)
same,Phenotype,[4],Paradoxical Effect-Penicillin Tolerance
same,"10xMIC, regrowth O.D.600",[4],+++ (“+++” indicates an O.D.600 of 0.751 to 1.500)
same,"30xMIC, regrowth O.D.600",[4],−− (“−−” indicates an O.D.600 of 0.001 to 0.099)
same,"100xMIC, regrowth O.D.600",[4],++ (“++” indicates an O.D.600 of 0.251 to 0.750)
same,"300xMIC, regrowth O.D.600",[4],+++ (“+++” indicates an O.D.600 of 0.751 to 1.500)
same,Phenotype,[5],Penicillin Tolerance (PT)
same,"10xMIC, regrowth O.D.600",[5],+++ (“+++” indicates an O.D.600 of 0.751 to 1.500)
same,"30xMIC, regrowth O.D.600",[5],+++ (“+++” indicates an O.D.600 of 0.751 to 1.500)
same,"100xMIC, regrowth O.D.600",[5],+++ (“+++” indicates an O.D.600 of 0.751 to 1.500)
same,"300xMIC, regrowth O.D.600",[5],+++ (“+++” indicates an O.D.600 of 0.751 to 1.500)
same,"10xMIC, regrowth O.D.600",GBS strain 12 (III),−− (“−−” indicates an O.D.600 of 0.001 to 0.099)
same,"30xMIC, regrowth O.D.600",GBS strain 12 (III),−− (“−−” indicates an O.D.600 of 0.001 to 0.099)
same,"100xMIC, regrowth O.D.600",GBS strain 12 (III),−− (“−−” indicates an O.D.600 of 0.001 to 0.099)
same,"300xMIC, regrowth O.D.600",GBS strain 12 (III),−− (“−−” indicates an O.D.600 of 0.001 to 0.099)
same,"10xMIC, regrowth O.D.600",GBS strain 18 (NT),−− (“−−” indicates an O.D.600 of 0.001 to 0.099)
same,"30xMIC, regrowth O.D.600",GBS strain 18 (NT),−− (“−−” indicates an O.D.600 of 0.001 to 0.099)
same,"100xMIC, regrowth O.D.600",GBS strain 18 (NT),−− (“−−” indicates an O.D.600 of 0.001 to 0.099)
same,"300xMIC, regrowth O.D.600",GBS strain 18 (NT),−− (“−−” indicates an O.D.600 of 0.001 to 0.099)
same,"10xMIC, regrowth O.D.600",GBS strain 21 (NT),−− (“−−” indicates an O.D.600 of 0.001 to 0.099)
same,"30xMIC, regrowth O.D.600",GBS strain 21 (NT),−− (“−−” indicates an O.D.600 of 0.001 to 0.099)
same,"100xMIC, regrowth O.D.600",GBS strain 21 (NT),−− (“−−” indicates an O.D.600 of 0.001 to 0.099)
same,"300xMIC, regrowth O.D.600",GBS strain 21 (NT),−− (“−−” indicates an O.D.600 of 0.001 to 0.099)
same,"10xMIC, regrowth O.D.600",GBS strain 22 (V),++ (“++” indicates an O.D.600 of 0.251 to 0.750)
same,"30xMIC, regrowth O.D.600",GBS strain 22 (V),++ (“++” indicates an O.D.600 of 0.251 to 0.750)
same,"100xMIC, regrowth O.D.600",GBS strain 22 (V),++ (“++” indicates an O.D.600 of 0.251 to 0.750)
same,"300xMIC, regrowth O.D.600",GBS strain 22 (V),++ (“++” indicates an O.D.600 of 0.251 to 0.750)
same,"10xMIC, regrowth O.D.600",GBS strain 26 (NT),−− (“−−” indicates an O.D.600 of 0.001 to 0.099)
same,"30xMIC, regrowth O.D.600",GBS strain 26 (NT),−− (“−−” indicates an O.D.600 of 0.001 to 0.099)
same,"100xMIC, regrowth O.D.600",GBS strain 26 (NT),−− (“−−” indicates an O.D.600 of 0.001 to 0.099)
same,"300xMIC, regrowth O.D.600",GBS strain 26 (NT),−− (“−−” indicates an O.D.600 of 0.001 to 0.099)
same,"10xMIC, regrowth O.D.600",GBS strain 46 (Ib),−− (“−−” indicates an O.D.600 of 0.001 to 0.099)
same,"30xMIC, regrowth O.D.600",GBS strain 46 (Ib),−− (“−−” indicates an O.D.600 of 0.001 to 0.099)
same,"100xMIC, regrowth O.D.600",GBS strain 46 (Ib),−− (“−−” indicates an O.D.600 of 0.001 to 0.099)
same,"300xMIC, regrowth O.D.600",GBS strain 46 (Ib),−− (“−−” indicates an O.D.600 of 0.001 to 0.099)
same,"10xMIC, regrowth O.D.600",GBS strain 47 (III),−− (“−−” indicates an O.D.600 of 0.001 to 0.099)
same,"30xMIC, regrowth O.D.600",GBS strain 47 (III),−− (“−−” indicates an O.D.600 of 0.001 to 0.099)
